Experimental data from ChEMBL document CHEMBL3390836, “Mannich- and LedererManasse-based analogues of the natural product S-(+)-curcuphenol as cancer proliferation and migration inhibitors” (Medchemcomm, 2012).

Legend:
[1] = tested on: A549; test: Cytotoxicity against human A549 cells assessed as cell growth at 10 uM after 48 hrs by SRB assay relative to control; format: functional; settings: A549, 48 h, read-out: Activity
[2] = tested on: T47D; test: Cytotoxicity against human T47D cells assessed as cell growth at 10 uM after 48 hrs by SRB assay relative to control; format: functional; settings: read-out: Activity
[3] = Cytotoxicity against human Hs 578T cells assessed as cell growth at 10 uM after 48 hrs by SRB assay relative to control; format: functional; settings: read-out: Activity
[4] = tested on: MCF7; test: Cytotoxicity against human MCF7 cells assessed as cell growth at 10 uM after 48 hrs by SRB assay relative to control; format: functional; settings: MCF7, 48 h, read-out: Activity
[5] = tested on: NCI-H460; test: Cytotoxicity against human NCI-H460 cells assessed as cell growth at 10 uM after 48 hrs by SRB assay relative to control; format: functional; settings: NCI-H460, 48 h, read-out: Activity
[6] = Cytotoxicity against human SKOV3 cells assessed as cell growth at 10 uM after 48 hrs by SRB assay relative to control; format: functional; settings: SK-OV-3, 48 h, read-out: Activity
[7] = Cytotoxicity against human HCT15 cells assessed as cell growth at 10 uM after 48 hrs by SRB assay relative to control; format: functional; settings: HCT-15, 48 h, read-out: Activity
[8] = tested on: MOLT-4; test: Cytotoxicity against human MOLT4 cells assessed as cell growth at 10 uM after 48 hrs by SRB assay relative to control; format: functional; settings: MOLT-4, 48 h, read-out: Activity
[9] = tested on: NCI-H522; test: Cytotoxicity against human NCI-H522 cells assessed as cell growth at 10 uM after 48 hrs by SRB assay relative to control; format: functional; settings: NCI-H522, 48 h, read-out: Activity
[10] = Cytotoxicity against human NCI-ADR-RES cells assessed as cell growth at 10 uM after 48 hrs by SRB assay relative to control; format: functional; settings: read-out: Activity
[11] = Cytotoxicity against human UO31 cells assessed as cell growth at 10 uM after 48 hrs by SRB assay relative to control; format: functional; settings: UO-31, 48 h, read-out: Activity
[12] = Cytotoxicity against human PC3 cells assessed as cell growth at 10 uM after 48 hrs by SRB assay relative to control; format: functional; settings: PC-3, 48 h, read-out: Activity
[13] = tested on: SR; test: Cytotoxicity against human SR cells assessed as cell growth at 10 uM after 48 hrs by SRB assay relative to control; format: functional; settings: read-out: Activity
[14] = tested on: A498; test: Cytotoxicity against human A498 cells assessed as cell growth at 10 uM after 48 hrs by SRB assay relative to control; format: functional; settings: A498, 48 h, read-out: Activity
[15] = tested on: HOP-62; test: Cytotoxicity against human HOP62 cells assessed as cell growth at 10 uM after 48 hrs by SRB assay relative to control; format: functional; settings: HOP-62, 48 h, read-out: Activity
[16] = Cytotoxicity against human UACC257 cells assessed as cell growth at 10 uM after 48 hrs by SRB assay relative to control; format: functional; settings: UACC-257, 48 h, read-out: Activity
[17] = tested on: MDA-MB-231; test: Antimigratory activity against human MDA-MB-231 cells after 24 hrs by wound-healing assay; format: functional, cell-based; settings: MDA-MB-231, 24 h
[18] = tested on: MDA-MB-468; test: Cytotoxicity against human MDA-MB-468 cells assessed as cell growth at 10 uM after 48 hrs by SRB assay relative to control; format: functional; settings: MDA-MB-468, 48 h, read-out: Activity
[19] = tested on: NCI-H226; test: Cytotoxicity against human NCI-H226 cells assessed as cell growth at 10 uM after 48 hrs by SRB assay relative to control; format: functional; settings: NCI-H226, 48 h, read-out: Activity
[20] = tested on: DU-145; test: Cytotoxicity against human DU145 cells assessed as cell growth at 10 uM after 48 hrs by SRB assay relative to control; format: functional; settings: DU-145, 48 h, read-out: Activity
[21] = tested on: SF-268; test: Cytotoxicity against human SF268 cells assessed as cell growth at 10 uM after 48 hrs by SRB assay relative to control; format: functional; settings: SF-268, 48 h, read-out: Activity
[22] = tested on: SF-295; test: Cytotoxicity against human SF295 cells assessed as cell growth at 10 uM after 48 hrs by SRB assay relative to control; format: functional; settings: SF-295, 48 h, read-out: Activity
[23] = Cytotoxicity against human OVCAR8 cells assessed as cell growth at 10 uM after 48 hrs by SRB assay relative to control; format: functional; settings: OVCAR-8, 48 h, read-out: Activity
[24] = tested on: SK-MEL-28; test: Cytotoxicity against human SK-MEL-28 cells assessed as cell growth at 10 uM after 48 hrs by SRB assay relative to control; format: functional; settings: SK-MEL-28, 48 h, read-out: Activity
[25] = tested on: SK-MEL-5; test: Cytotoxicity against human SK-MEL-5 cells assessed as cell growth at 10 uM after 48 hrs by SRB assay relative to control; format: functional; settings: SK-MEL-5, 48 h, read-out: Activity
[26] = tested on: BT-549; test: Cytotoxicity against human BT549 cells assessed as cell growth at 10 uM after 48 hrs by SRB assay relative to control; format: functional; settings: BT-549, 48 h, read-out: Activity
[27] = tested on: Malme-3M; test: Cytotoxicity against human MALME-3M cells assessed as cell growth at 10 uM after 48 hrs by SRB assay relative to control; format: functional; settings: read-out: Activity
[28] = tested on: HOP-92; test: Cytotoxicity against human HOP92 cells assessed as cell growth at 10 uM after 48 hrs by SRB assay relative to control; format: functional; settings: HOP-92, 48 h, read-out: Activity

Structure (SMILES)	growth at 10 µM [1] [%]	growth at 10 µM [2] [%]	growth at 10 µM [3] [%]	growth at 10 µM [4] [%]	growth at 10 µM [5] [%]	growth at 10 µM [6] [%]	growth at 10 µM [7] [%]	growth at 10 µM [8] [%]	growth at 10 µM [9] [%]	growth at 10 µM [10] [%]	growth at 10 µM [11] [%]	growth at 10 µM [12] [%]	growth at 10 µM [14] [%]	growth at 10 µM [15] [%]	growth at 10 µM [16] [%]	IC50 [17] [µM]	growth at 10 µM [18] [%]	growth at 10 µM [19] [%]	growth at 10 µM [22] [%]	growth at 10 µM [23] [%]	other results
COc1ccc(CCNCc2c(C)ccc([C@@H](C)CCC=C(C)C)c2O)cc1OC	85.8	69.8	89.6	85.1	83.1	94.8	92.2	68.2	75	83.4	42.6	71	53.4	89	78.7	> 20	67.9	78.3	87.9	80.4	growth at 10 µM [13]: 53.4%; growth at 10 µM [20]: 83.4%; growth at 10 µM [21]: 90.7%; growth at 10 µM [24]: 104%; growth at 10 µM [25]: 78%
CC(C)=CCC[C@H](C)c1ccc(C)c(CNCCCCCO)c1O	91.5	99.1	88.4	79.4	94.5	99.4	86.1	83.1	89.2	86.8	54.9	79.5	82.6	88.4	93.2	> 20	79.8	99.6	108	98	growth at 10 µM [26]: 108%; growth at 10 µM [13]: 84%; growth at 10 µM [20]: 108%; growth at 10 µM [21]: 87.8%; growth at 10 µM [27]: 106%; growth at 10 µM [24]: 112%; growth at 10 µM [25]: 84.9%
CC(C)=CCC[C@H](C)c1ccc(C)c2c1OCN(CCCCC(=O)O)C2	101	95.4	104	92.5	105	104	92.3	102	44.8	85.3	69.7	92.3	99.4	94.6	89.5	29.9	87	95.7	102	88.8	growth at 10 µM [28]: 83.7%; growth at 10 µM [13]: 105%; growth at 10 µM [20]: 118%; growth at 10 µM [21]: 100%; growth at 10 µM [27]: 126%; growth at 10 µM [24]: 115%; growth at 10 µM [25]: 92%
CC(C)=CCC[C@H](C)c1ccc(C)c(CNCCCCC(=O)O)c1O	95.8	113	102	101	105	105	105	95.1	95.4	103	81.9	98	92.3	106	101	> 20	100	91.1	101	94.1	growth at 10 µM [26]: 111%; growth at 10 µM [13]: 85%; growth at 10 µM [20]: 110%; growth at 10 µM [21]: 105%; growth at 10 µM [24]: 109%; growth at 10 µM [25]: 98.4%
CC(C)=CCC[C@H](C)c1ccc(C)c(CO)c1O	78.5	72.2	104	102	108	122	109	91.4	87.1	97.1	76.7	89.1	97.4	99.8	91.9	12.3	93.5	112	103	92.1	growth at 10 µM [26]: 91.8%; growth at 10 µM [28]: 65.2%; growth at 10 µM [27]: 110%; growth at 10 µM [24]: 134%; growth at 10 µM [25]: 85.1%
CC(C)=CCC[C@H](C)c1ccc(C)c2c1OCN(CCO)C2	82.4	70	75.6	83.9	96	105	105	101	78.1	73.5	42.4	76.9	47.2	80.4	92.3	11.1	82.5	91.2	98.6	86.3	growth at 10 µM [26]: 95.8%; growth at 10 µM [28]: 4.21%; growth at 10 µM [27]: 89.5%; growth at 10 µM [24]: 111%; growth at 10 µM [25]: 81.2%
CC(C)=CCC[C@H](C)c1ccc(C)c(CNCCO)c1O	94.4	90.2	83.1	105	102	88.9	98.6	87.5	81.4	88.7	54.7	88.1	66.5	81	81.7	> 20	81.7	90	105	89.6	growth at 10 µM [13]: 75.7%; growth at 10 µM [20]: 98.3%; growth at 10 µM [21]: 97.8%; growth at 10 µM [24]: 112%; growth at 10 µM [25]: 92.5%
CC(C)=CCC[C@H](C)c1ccc(C)cc1O	92.6	111	114	97.8	107	119	109	102	101	99	83	80	87.8	102	107	37.2	95.7	107	107	108	growth at 10 µM [26]: 114%; growth at 10 µM [28]: 85%; growth at 10 µM [27]: 115%; growth at 10 µM [24]: 119%; growth at 10 µM [25]: 97.5%
